Reference: ChEMBL document CHEMBL4732038 (RSC Med Chem, 2021)
Converted amounts (≈) assume the structure as drawn.

Key:
[1] = test system: Mycobacterium tuberculosis; assay: Antitubercular activity against Mycobacterium tuberculosis H37Rv assessed as bacterial growth inhibition at 10 uM incubated for 5 days by resazurin microtiter assay relative to control; type: functional; details: 120 h, time 5 day
[2] = test system: Mycobacterium tuberculosis; assay: Antitubercular activity against Mycobacterium tuberculosis H37Rv assessed as bacterial growth inhibition at 1 uM incubated for 5 days by resazurin microtiter assay relative to control; type: functional; details: 120 h, time 5 day
[3] = test system: Mycobacterium tuberculosis; assay: Antitubercular activity against Mycobacterium tuberculosis H37Rv assessed as bacterial growth inhibition incubated for 5 days by resazurin microtiter assay; type: functional; details: 120 h, time 5 day
[4] = target: Voltage-gated inwardly rectifying potassium channel KCNH2 (Homo sapiens, UniProt Q12809); assay: Inhibition of fluorescently labelled tracer binding to human ERG by competitive binding assay
[5] = test system: Mycobacterium tuberculosis; assay: Antitubercular activity against Mycobacterium tuberculosis H37Rv by broth microdilution method; type: functional

Voltage-gated inwardly rectifying potassium channel KCNH2, sequence (Q12809 whole entry): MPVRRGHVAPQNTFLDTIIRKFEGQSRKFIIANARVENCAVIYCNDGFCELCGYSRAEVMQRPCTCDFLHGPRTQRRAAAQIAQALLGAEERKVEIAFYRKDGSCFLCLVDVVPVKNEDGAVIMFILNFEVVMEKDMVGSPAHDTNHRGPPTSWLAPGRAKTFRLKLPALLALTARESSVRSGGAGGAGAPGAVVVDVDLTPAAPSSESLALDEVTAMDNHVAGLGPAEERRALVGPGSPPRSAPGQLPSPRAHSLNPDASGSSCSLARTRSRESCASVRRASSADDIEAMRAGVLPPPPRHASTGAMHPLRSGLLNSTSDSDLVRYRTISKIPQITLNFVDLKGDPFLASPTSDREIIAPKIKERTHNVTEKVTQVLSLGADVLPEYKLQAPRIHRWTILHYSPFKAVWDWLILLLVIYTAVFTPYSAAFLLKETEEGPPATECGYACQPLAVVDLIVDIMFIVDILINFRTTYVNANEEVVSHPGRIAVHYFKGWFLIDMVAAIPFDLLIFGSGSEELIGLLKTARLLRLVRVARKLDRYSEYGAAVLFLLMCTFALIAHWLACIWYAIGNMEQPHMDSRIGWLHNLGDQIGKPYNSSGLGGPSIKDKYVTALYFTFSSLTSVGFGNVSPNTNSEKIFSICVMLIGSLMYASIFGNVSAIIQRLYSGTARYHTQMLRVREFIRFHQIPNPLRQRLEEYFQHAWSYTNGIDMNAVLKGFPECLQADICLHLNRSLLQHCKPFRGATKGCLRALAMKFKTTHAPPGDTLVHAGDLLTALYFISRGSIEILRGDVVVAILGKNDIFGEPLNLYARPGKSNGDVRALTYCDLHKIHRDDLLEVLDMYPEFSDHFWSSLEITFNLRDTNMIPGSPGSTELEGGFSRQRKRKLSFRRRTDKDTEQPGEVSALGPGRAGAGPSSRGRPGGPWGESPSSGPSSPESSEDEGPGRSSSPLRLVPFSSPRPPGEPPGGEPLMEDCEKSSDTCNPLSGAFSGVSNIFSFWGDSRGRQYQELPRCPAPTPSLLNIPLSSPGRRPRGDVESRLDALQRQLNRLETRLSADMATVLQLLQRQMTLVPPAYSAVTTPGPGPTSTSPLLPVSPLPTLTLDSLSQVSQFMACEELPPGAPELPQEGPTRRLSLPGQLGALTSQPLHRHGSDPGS

SMILES | inhibition at 10 µM [1] [%] | inhibition at 1 µM [2] [%] | MIC90 [3] [µM] | EC50 [4] [nM] | MIC90 [5] [µM]
COc1ncc(-c2ccc(Cl)cc2Cl)cc1C(c1ccccc1)C(O)(CCN(C)C)c1cccc2ccccc12 (configuration not stated) | 100 | 0 | – | – | –
COc1ncc(-c2ccc(Cl)c(Cl)c2)cc1C(c1ccccc1)C(O)(CCN(C)C)c1cccc2ccccc12 (configuration not stated) | 100 | 0 | – | – | –
COc1ncc(-c2ccc(F)cc2F)cc1C(c1ccccc1)C(O)(CCN(C)C)c1cccc2ccccc12 (configuration not stated) | 100 | 0 | – | – | –
COc1ncc(-c2ccc(F)cc2)cc1C(c1ccccc1)C(O)(CCN(C)C)c1cccc2ccccc12 (configuration not stated) | 100 | 100 | 0.8 (≈ 0.417 µg/mL) | – | –
COc1ncc(-c2ccc(F)c(C)c2)cc1C(c1ccccc1)C(O)(CCN(C)C)c1cccc2ccccc12 (configuration not stated) | 100 | 5 | – | – | –
COc1ncc(-c2ccccc2)cc1C(c1ccccc1)C(O)(CCN(C)C)c1cccc2ccccc12 (configuration not stated) | 100 | 10 | 5.51 (≈ 2.77 µg/mL) | – | –
COc1ncc(-c2ccccc2C#N)cc1C(c1ccccc1)C(O)(CCN(C)C)c1cccc2ccccc12 (configuration not stated) | 90 | 0 | – | – | –
COc1ncc(-c2ccc(F)c(Cl)c2)cc1C(c1ccccc1)C(O)(CCN(C)C)c1cccc2ccccc12 (configuration not stated) | 100 | 0 | – | – | –
COc1nc(OC)c(C(c2ccccc2)C(O)(CCN(C)C)c2cccc3ccccc23)cc1-c1ccc(F)cc1 (configuration not stated) | – | – | 2.41 (≈ 1.33 µg/mL) | – | –
COc1ncc(-c2ccc(Cl)cc2)cc1C(c1ccccc1)C(O)(CCN(C)C)c1cccc2ccccc12 (configuration not stated) | 100 | 5 | 6.94 (≈ 3.73 µg/mL) | – | –
COc1ncc(-c2ccc(C(F)(F)F)cc2)cc1C(c1ccccc1)C(O)(CCN(C)C)c1cccc2ccccc12 (configuration not stated) | 100 | 5 | 4.26 (≈ 2.43 µg/mL) | – | –
COc1nc(OC)c(C(c2ccccc2)C(O)(CCN(C)C)c2cccc3ccccc23)cc1-c1ccc(OC(F)(F)F)cc1 (configuration not stated) | – | – | 2.34 (≈ 1.44 µg/mL) | – | –
COc1ncc(-c2ccc(C(C)(C)C)cc2)cc1C(c1ccccc1)C(O)(CCN(C)C)c1cccc2ccccc12 (configuration not stated) | 100 | 90 | 3.09 (≈ 1.73 µg/mL) | – | –
COc1nc(OC)c([C@@H](c2ccccc2)[C@@](O)(CCN(C)C)c2cccc3ccccc23)cc1-c1ccc(C#N)cc1 | – | – | 1 (≈ 0.558 µg/mL) | 1520 | –
COc1nc2ccc(Br)cc2cc1[C@@H](c1ccccc1)[C@@](O)(CCN(C)C)c1cccc2ccccc12 [BEDAQUILINE] | – | – | 0.35 (≈ 0.194 µg/mL) | – | 0.027 (≈ 0.015 µg/mL)
COc1nc(OC)c(C(c2ccccc2)C(O)(CCN(C)C)c2cccc3ccccc23)cc1-c1ccc(Cl)cc1 (configuration not stated) | – | – | 3.44 (≈ 1.95 µg/mL) | – | –
COc1ncc(-c2ccccc2OC(F)(F)F)cc1C(c1ccccc1)C(O)(CCN(C)C)c1cccc2ccccc12 (configuration not stated) | 100 | 0 | – | – | –

SMILES | inhibition at 10 µM [1] [%] | inhibition at 1 µM [2] [%] | MIC90 [3] [µM] | EC50 [4] [nM] | MIC90 [5] [µM]
COc1ncc(-c2cccc(Cl)c2)cc1C(c1ccccc1)C(O)(CCN(C)C)c1cccc2ccccc12 (configuration not stated) | 100 | 5 | 7.94 (≈ 4.26 µg/mL) | – | –
COc1ncc(-c2ccc(Cl)c(C(F)(F)F)c2)cc1C(c1ccccc1)C(O)(CCN(C)C)c1cccc2ccccc12 (configuration not stated) | 100 | 0 | – | – | –
COc1ncc(Br)cc1C(c1ccccc1)C(O)(CCN(C)C)c1cccc2ccccc12 (mixture of isomers) | – | – | > 10 | – | –
COc1ncc(-c2ccc(C)c(Cl)c2)cc1C(c1ccccc1)C(O)(CCN(C)C)c1cccc2ccccc12 (configuration not stated) | 100 | 5 | – | – | –
CO[C@H]1/C=C/O[C@@]2(C)Oc3c(C)c(O)c4c(O)c(c(/C=N/N5CCN(C)CC5)c(O)c4c3C2=O)NC(=O)/C(C)=C\C=C\[C@H](C)[C@H](O)[C@@H](C)[C@@H](O)[C@@H](C)[C@H](OC(C)=O)[C@@H]1C [RIFAMPIN] | – | – | 0.006 (≈ 0.00494 µg/mL) | – | –
COc1ncc(-c2ccccc2F)cc1C(c1ccccc1)C(O)(CCN(C)C)c1cccc2ccccc12 (configuration not stated) | 100 | 0 | 2.6 (≈ 1.35 µg/mL) | – | –
COc1ncc(-c2ccc(OC(F)(F)F)cc2)cc1C(c1ccccc1)C(O)(CCN(C)C)c1cccc2ccccc12 (configuration not stated) | 100 | 10 | 6.05 (≈ 3.55 µg/mL) | – | –
COc1ncc(-c2ccc(F)cc2C#N)cc1C(c1ccccc1)C(O)(CCN(C)C)c1cccc2ccccc12 (configuration not stated) | 100 | 0 | – | – | –
COc1nc(OC)c(C(c2ccccc2)C(O)(CCN(C)C)c2cccc3ccccc23)cc1-c1ccccc1 (configuration not stated) | – | – | 3.88 (≈ 2.07 µg/mL) | – | –
COc1ncc(-c2cccc3ccccc23)cc1C(c1ccccc1)C(O)(CCN(C)C)c1cccc2ccccc12 (configuration not stated) | 100 | 5 | – | – | –
COc1ncc(-c2ccccc2Cl)cc1C(c1ccccc1)C(O)(CCN(C)C)c1cccc2ccccc12 (configuration not stated) | 100 | 0 | 4.52 (≈ 2.43 µg/mL) | – | –
COc1nc(OC)c(C(c2ccccc2)C(O)(CCN(C)C)c2cccc3ccccc23)cc1-c1ccc(C#N)cc1 (configuration not stated) | – | – | 1.24 (≈ 0.692 µg/mL) | – | –
COc1ncc(-c2cccc(F)c2)cc1C(c1ccccc1)C(O)(CCN(C)C)c1cccc2ccccc12 (configuration not stated) | 100 | 5 | 2.51 (≈ 1.31 µg/mL) | – | –
COc1nc(OC)c([C@H](c2ccccc2)[C@](O)(CCN(C)C)c2cccc3ccccc23)cc1-c1ccc(C#N)cc1 | – | – | 8 (≈ 4.46 µg/mL) | – | –
COc1ccc(-c2cc(C(c3ccccc3)C(O)(CCN(C)C)c3cccc4ccccc34)c(OC)nc2OC)cc1 (configuration not stated) | – | – | 3.94 (≈ 2.22 µg/mL) | – | –
COc1ncc(-c2ccc(C(F)(F)F)cc2Cl)cc1C(c1ccccc1)C(O)(CCN(C)C)c1cccc2ccccc12 (configuration not stated) | 100 | 5 | – | – | –
